Data on 2 molecules can be found in PMC8162438, “Cancer cell-selective modulation of mitochondrial respiration and metabolism by potent organogold(III) dithiocarbamates” (Chemical Science, 2020).

Where only a bound is given, the exact number is not on record here.

The subject of the assay is MRC5. Put plainly: MTT cell viability, human fetal lung fibroblasts MRC5. Format: cell-based. Conditions: 72 h. The method, then:
All the gold(III) dithiocarbamate compounds display remarkable cell killing potential in a panel of breast, ovarian, lung and leukemia cancers. Preliminary studies focused on different cancer cell lines (MDA-MB-231, MDA-MB-175, and A2780), an immortalized normal retinal epithelial cell line (RPE-NEO) and human fetal lung fibroblasts (MRC5) (Fig. S111–S129 ^†). These adherent cells were exposed to a serial-diluted concentration of all ten compounds for 72 h. The cells were subsequently treated with 3-(4,5-dimethylthiazol-2-yl)-2,5-diphenyltetrazolium bromide (MTT) solutions, dissolved with DMSO and the absorbance at 570 nm was measured with a plate-reader.
In Vitro Biological Assays
Cell Culture. All cell lines were purchased from ATCC and routinely grown in a humidified incubator at 37 °C with 5-10% CO 2. MDA-MB-231, MDA-MB-175, MRC5, RPE-NEO, H460, and K562 were grown in DMEM supplemented with 10% FBS, 1% amphotericin and 1% penicillin/streptomycin. A2780 cells were grown in RPMI supplemented with 10% FBS, 1% amphotericin, and 1% penicillin/streptomycin, and 4 mM glutamine. All supplements along with PBS and trypsin-EDTA were purchased from Corning Inc. and used as is. […]
Cell Viability of 1a-1e and 2a-2e (Adherent Cell Lines). The cell viability of all 10 complexes were performed in MDA-MB-231, MDA-MB-175, A2780, RPE-NEO and MRC5. The cell viability of compound 2a was also determined in H460. Cells were grown to confluency and trypsin was added to detach and harvest cells. The cells were washed with 2 mL of PBS and suspended in 10 mL of the appropriate media. The cells were centrifuged at 2000 rpm for 5 minutes and the pellet washed with 2 mL of PBS then suspended in 5 mL of the appropriate […]
media. The cells were plated at a density of 2,000 cells/well in a 96-well clear bottom plate and allowed to adhere overnight at 37 °C with 5-10% CO 2. The compounds were prepared as a stock in DMSO and used fresh. The compounds were added at seven concentrations with a 3x serial dilution starting at 50 µM for the highest concentration and incubated at 37 °C for 72 h with 5-10% CO 2. The medium was removed and a solution of MTT (100 µL, prepared by dissolving MTT at 5 mg/mL and diluting by 10x with DMEM) was added to each well and incubated for 4 h at 37 ° C with 5-10% CO 2. The dye was removed from each well and 100 µL of DMSO was added to induce cell lysis. The plates were read using a Genios plate reader (λ = 570 nm). The experiment was performed in triplicate and data are plotted as the mean ± s.e.m. (n = 3). Data for 2a can be found in the main text (Figure 6) and the other complexes can be seen in the supplementary figures (S111 – S129). […]
Cells were grown to confluency and centrifuged at 2000 rpm for 5 minutes to collect the cell pellet. The cells were washed with 5 mL of PBS, suspended in 5 mL of DMEM, and centrifuged again at 2000 rpm for 5 minutes to collect the pellet. The pellet was then washed with 2 mL of PBS and suspended in 5 mL of DMEM. The cells were plated at density of 2,000 cells/well in a 96-well white bottom plate. 2a was prepared as a stock solution […]
10% CO 2. The cells were removed from the incubator and allowed to rest at room temperature for 30 minutes. To each designated well was then added 20 µL of CellTiter-Glo solution and orbitally shaken for 5 minutes and the luminescence (1000 ms integration and 150 ms gain) acquired on a Genios plate reader. The experiment was performed in triplicate. Data are plotted […]
Apoptosis Analysis. […]
A stock of 2a was prepared fresh in DMSO and added to the desired well at a concentration of 1 µM with a final volume of 2.5 mL and incubated for 4 h at 37 °C. A stock of H2O2 was prepared in PBS and the cells treated at a final concentration of 2 mM for 1 hour as a […]

Take `C[N+](C)=C1[S][Au-2]2([S]1)[c]1ccccc1C(=O)c1cccc[n+]12.F[P-](F)(F)(F)(F)F` (centres unmarked) [1a]: the IC50 was over 50 µM.
Regarding `C[N+](C)=C1[S][Au-2]2([S]1)[c]1ccccc1Cc1cccc[n+]12.F[P-](F)(F)(F)(F)F` (centres unmarked) [2a], the concentration for half-maximal inhibition (IC50) is over 50 µM.

Broadly, the IC50 is the concentration that gives 50% inhibition. Read a low IC50 as greater potency in that assay.
